Measured values taken from the kinase profiling compilation of Christmann-Franck et al. (2016).
“And” between values parts separate entries of the source, which are not always exact repeats. Equal values may be shown once.

Assays:
Test in all cases: Caliper, Mobility shift assay off-chip
MARK2 (human) = MARK2 (human) (UniProt Q7KZI7)
SGK2 (human) = SGK2 (human) (UniProt Q9HBY8)
RPS6KA4 KD1 KD2 (human) = RPS6KA4 KD1 KD2 (human) (UniProt O75676)
BTK (human) = BTK (human) (UniProt Q06187)
[1] = tested on: ABL1 (human), P00519 [T315I]
IKBKB (human) = IKBKB (human) (UniProt O14920)
MAPKAPK3 (human) = MAPKAPK3 (human) (UniProt Q16644)
NEK2 (human) = NEK2 (human) (UniProt P51955)
BRSK2 (human) = BRSK2 (human) (UniProt Q8IWQ3)
RPS6KB1 (human) = RPS6KB1 (human) (UniProt P23443)
PRKCQ (human) = PRKCQ (human) (UniProt Q04759)
MARK1 (human) = MARK1 (human) (UniProt Q9P0L2)
FGFR3 (human) = FGFR3 (human) (UniProt P22607)
[2] = tested on: ABL1 (human), P00519 [H396P]
CAMK2G (human) = CAMK2G (human) (UniProt Q13555)
MAPK1 (human) = MAPK1 (human) (UniProt P28482)
RPS6KA2 KD1 KD2 (human) = RPS6KA2 KD1 KD2 (human) (UniProt Q15349)
FGFR2 (human) = FGFR2 (human) (UniProt P21802)
MAPKAPK2 (human) = MAPKAPK2 (human) (UniProt P49137)
PRKCZ (human) = PRKCZ (human) (UniProt Q05513)
SGK3 (human) = SGK3 (human) (UniProt Q96BR1)
PRKD2 (human) = PRKD2 (human) (UniProt Q9BZL6)
FYN (human) = FYN (human) (UniProt P06241)
PRKACA (human) = PRKACA (human) (UniProt P17612)
PDGFRA (human) = PDGFRA (human) (UniProt P16234)
SRC (human) = SRC (human) (UniProt P12931)
BRSK1 (human) = BRSK1 (human) (UniProt Q8TDC3)
PRKG1 (human) = PRKG1 (human) (UniProt Q13976)
MAPK12 (human) = MAPK12 (human) (UniProt P53778)
PRKCD (human) = PRKCD (human) (UniProt Q05655)
RPS6KA5 KD1 KD2 (human) = RPS6KA5 KD1 KD2 (human) (UniProt O75582)
PRKCA (human) = PRKCA (human) (UniProt P17252)
PRKCG (human) = PRKCG (human) (UniProt P05129)
[3] = tested on: FLT3 (human), P36888 [D835Y]

PRKCZ (human), sequence (Q05513 whole entry, looked up): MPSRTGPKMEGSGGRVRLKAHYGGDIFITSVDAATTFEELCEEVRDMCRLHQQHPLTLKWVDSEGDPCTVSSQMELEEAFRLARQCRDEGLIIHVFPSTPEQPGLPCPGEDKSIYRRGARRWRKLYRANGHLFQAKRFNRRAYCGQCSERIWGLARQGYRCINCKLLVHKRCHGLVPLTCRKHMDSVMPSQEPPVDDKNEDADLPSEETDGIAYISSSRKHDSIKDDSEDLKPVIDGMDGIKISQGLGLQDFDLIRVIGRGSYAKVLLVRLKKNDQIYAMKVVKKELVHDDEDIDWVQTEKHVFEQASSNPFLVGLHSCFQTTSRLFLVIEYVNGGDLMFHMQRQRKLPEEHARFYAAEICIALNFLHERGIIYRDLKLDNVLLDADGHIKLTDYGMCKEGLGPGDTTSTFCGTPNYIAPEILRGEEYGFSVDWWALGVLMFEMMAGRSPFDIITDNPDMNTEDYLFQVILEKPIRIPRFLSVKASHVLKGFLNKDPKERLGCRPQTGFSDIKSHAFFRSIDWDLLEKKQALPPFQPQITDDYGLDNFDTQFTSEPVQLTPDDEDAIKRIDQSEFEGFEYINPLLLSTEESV
MARK2 (human), sequence (Q7KZI7 whole entry, looked up): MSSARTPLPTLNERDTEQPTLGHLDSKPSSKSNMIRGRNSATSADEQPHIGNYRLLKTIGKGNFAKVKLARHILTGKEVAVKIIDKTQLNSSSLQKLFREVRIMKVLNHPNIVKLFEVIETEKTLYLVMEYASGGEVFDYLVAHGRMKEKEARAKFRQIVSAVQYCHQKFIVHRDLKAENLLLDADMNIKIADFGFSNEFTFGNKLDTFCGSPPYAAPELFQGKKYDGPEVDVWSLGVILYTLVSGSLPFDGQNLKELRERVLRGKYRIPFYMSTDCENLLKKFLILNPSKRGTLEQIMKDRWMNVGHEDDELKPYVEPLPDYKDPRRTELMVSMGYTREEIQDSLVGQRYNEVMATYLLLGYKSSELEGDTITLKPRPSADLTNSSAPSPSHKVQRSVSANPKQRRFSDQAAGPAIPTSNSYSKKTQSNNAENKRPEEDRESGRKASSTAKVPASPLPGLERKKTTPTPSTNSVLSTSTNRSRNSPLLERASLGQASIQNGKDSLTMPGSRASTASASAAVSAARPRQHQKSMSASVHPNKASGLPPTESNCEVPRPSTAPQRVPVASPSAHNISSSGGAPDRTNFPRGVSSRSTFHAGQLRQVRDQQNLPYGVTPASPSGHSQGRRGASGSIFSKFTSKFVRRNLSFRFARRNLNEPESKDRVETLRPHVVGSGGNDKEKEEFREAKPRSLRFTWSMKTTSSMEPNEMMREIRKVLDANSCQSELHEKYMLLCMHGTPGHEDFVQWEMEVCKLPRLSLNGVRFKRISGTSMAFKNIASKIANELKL
PRKD2 (human), sequence (Q9BZL6 whole entry, looked up): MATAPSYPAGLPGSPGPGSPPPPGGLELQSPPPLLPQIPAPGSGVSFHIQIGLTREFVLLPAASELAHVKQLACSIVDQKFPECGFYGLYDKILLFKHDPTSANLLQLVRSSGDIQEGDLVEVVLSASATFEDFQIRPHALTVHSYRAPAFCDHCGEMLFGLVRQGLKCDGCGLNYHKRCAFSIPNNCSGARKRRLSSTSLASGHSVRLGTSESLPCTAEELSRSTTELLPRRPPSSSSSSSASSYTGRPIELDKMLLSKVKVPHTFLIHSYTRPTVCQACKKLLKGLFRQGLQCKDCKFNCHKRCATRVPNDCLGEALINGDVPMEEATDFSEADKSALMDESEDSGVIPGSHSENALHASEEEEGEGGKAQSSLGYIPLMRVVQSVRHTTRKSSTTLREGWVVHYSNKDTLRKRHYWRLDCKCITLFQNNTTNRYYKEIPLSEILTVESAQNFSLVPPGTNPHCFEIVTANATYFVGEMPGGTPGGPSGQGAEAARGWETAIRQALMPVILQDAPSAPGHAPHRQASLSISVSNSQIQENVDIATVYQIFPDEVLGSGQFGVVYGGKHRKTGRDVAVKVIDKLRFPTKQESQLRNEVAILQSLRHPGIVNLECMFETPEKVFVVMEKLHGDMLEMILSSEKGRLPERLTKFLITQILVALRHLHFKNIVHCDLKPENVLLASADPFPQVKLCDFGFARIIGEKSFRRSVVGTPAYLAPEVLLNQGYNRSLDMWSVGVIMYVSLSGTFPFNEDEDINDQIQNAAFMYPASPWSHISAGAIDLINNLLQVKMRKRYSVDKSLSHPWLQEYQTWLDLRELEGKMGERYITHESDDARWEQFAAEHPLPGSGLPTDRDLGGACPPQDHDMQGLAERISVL
IKBKB (human), sequence (O14920 whole entry, looked up): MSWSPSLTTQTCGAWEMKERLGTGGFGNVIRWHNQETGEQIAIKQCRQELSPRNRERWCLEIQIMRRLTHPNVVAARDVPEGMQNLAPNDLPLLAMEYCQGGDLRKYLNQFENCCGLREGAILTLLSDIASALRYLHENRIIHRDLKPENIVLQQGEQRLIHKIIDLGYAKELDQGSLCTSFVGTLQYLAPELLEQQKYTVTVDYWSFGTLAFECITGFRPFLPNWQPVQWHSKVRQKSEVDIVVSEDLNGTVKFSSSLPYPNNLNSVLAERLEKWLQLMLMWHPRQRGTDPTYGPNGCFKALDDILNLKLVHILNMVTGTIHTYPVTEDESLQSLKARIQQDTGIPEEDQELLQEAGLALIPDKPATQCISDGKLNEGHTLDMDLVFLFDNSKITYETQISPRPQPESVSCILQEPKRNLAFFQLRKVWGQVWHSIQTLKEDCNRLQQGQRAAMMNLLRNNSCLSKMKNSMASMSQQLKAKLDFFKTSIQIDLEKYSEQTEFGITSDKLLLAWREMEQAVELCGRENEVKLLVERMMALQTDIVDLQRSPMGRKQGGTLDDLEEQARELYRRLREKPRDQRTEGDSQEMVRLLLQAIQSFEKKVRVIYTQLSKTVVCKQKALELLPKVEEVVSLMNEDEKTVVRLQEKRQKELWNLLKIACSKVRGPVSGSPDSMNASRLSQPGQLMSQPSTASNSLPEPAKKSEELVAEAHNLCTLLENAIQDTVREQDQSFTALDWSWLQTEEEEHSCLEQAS
MARK1 (human), sequence (Q9P0L2 whole entry, looked up): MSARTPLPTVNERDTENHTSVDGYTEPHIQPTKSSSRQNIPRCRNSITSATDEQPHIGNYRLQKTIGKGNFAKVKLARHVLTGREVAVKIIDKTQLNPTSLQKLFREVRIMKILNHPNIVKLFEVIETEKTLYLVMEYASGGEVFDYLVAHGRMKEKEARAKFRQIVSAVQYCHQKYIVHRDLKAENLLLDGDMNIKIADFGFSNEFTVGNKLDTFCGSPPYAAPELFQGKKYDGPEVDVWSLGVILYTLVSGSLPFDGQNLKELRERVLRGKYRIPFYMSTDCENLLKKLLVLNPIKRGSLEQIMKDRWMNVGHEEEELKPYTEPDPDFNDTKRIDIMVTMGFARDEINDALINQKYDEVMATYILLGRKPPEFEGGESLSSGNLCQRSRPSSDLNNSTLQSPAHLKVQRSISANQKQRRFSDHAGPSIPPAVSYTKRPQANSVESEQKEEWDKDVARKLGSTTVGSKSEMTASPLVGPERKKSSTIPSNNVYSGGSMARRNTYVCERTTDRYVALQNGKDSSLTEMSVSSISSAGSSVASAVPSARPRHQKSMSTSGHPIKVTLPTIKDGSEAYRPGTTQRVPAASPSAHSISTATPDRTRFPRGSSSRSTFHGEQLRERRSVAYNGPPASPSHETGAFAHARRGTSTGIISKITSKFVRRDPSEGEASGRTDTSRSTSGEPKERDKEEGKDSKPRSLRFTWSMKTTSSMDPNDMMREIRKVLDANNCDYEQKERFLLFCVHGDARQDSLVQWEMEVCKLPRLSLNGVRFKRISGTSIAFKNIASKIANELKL
CAMK2G (human), sequence (Q13555 whole entry, looked up): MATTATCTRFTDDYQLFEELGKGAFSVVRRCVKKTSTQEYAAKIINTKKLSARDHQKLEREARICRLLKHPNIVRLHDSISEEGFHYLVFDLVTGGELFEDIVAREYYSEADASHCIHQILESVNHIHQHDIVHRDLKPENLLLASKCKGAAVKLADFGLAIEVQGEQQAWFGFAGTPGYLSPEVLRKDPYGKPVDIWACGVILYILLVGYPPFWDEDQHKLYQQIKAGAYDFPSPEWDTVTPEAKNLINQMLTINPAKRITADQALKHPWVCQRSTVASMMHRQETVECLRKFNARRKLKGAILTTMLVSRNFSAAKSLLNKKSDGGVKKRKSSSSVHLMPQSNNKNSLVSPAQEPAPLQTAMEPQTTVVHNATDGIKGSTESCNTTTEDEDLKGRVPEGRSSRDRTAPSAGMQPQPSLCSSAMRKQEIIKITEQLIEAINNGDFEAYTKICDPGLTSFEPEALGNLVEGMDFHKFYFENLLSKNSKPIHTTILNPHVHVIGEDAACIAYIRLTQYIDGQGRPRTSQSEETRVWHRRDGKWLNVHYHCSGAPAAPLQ

`O=c1c2cc(CS(=O)(=O)NCc3ccccn3)ccc2ccc2ncc(C3CCNCC3)cc12` showed an inhibition (MARK2 (human); compound 0.01 µM) of -7%, an inhibition (MARK2 (human); compound 0.1 µM) of -10% and an inhibition (SGK2 (human); compound 0.01 µM) of -4.2%. It also gave an inhibition (SGK2 (human); compound 0.1 µM) of 4.7%, an inhibition (RPS6KA4 KD1 KD2 (human); compound 0.01 µM) of 9.3% and an inhibition (RPS6KA4 KD1 KD2 (human); compound 0.1 µM) of -5.3%. The inhibition (BTK (human); compound 0.01 µM) was 5.6%, the inhibition (BTK (human); compound 0.1 µM) was 5.1% and the inhibition ([1]; compound 0.01 µM) was 19.6%. For the same molecule, the inhibition ([1]; compound 0.1 µM) was -2.4%, the inhibition (IKBKB (human); compound 0.01 µM) was -0.2% and the inhibition (IKBKB (human); compound 0.1 µM) was 0.6%. For the same molecule, the inhibition (MAPKAPK3 (human); compound 0.01 µM) was -0.3%, the inhibition (MAPKAPK3 (human); compound 0.1 µM) was -0.3% and the inhibition (NEK2 (human); compound 0.01 µM) was -2.6%. For the same molecule, the inhibition (NEK2 (human); compound 0.1 µM) was -2.3%, the inhibition (BRSK2 (human); compound 0.01 µM) was -1.9% and the inhibition (BRSK2 (human); compound 0.1 µM) was 4.8%. For the same molecule, the inhibition (RPS6KB1 (human); compound 0.01 µM) was 6.8%, the inhibition (RPS6KB1 (human); compound 0.1 µM) was -1.3% and the inhibition (PRKCQ (human); compound 0.01 µM) was 3.4%. For the same molecule, the inhibition (PRKCQ (human); compound 0.1 µM) was -3.8%, the inhibition (MARK1 (human); compound 0.01 µM) was -0.1% and the inhibition (MARK1 (human); compound 0.1 µM) was -2.9%. It also gave an inhibition (FGFR3 (human); compound 0.01 µM) of -38.6%, an inhibition (FGFR3 (human); compound 0.1 µM) of -12.3% and an inhibition ([2]; compound 0.01 µM) of 4.8%. The inhibition ([2]; compound 0.1 µM) was -2.5%, the inhibition (CAMK2G (human); compound 0.01 µM) was 6.3% and the inhibition (CAMK2G (human); compound 0.1 µM) was 2.1%. For the same molecule, the inhibition (MAPK1 (human); compound 0.01 µM) was -2.5%, the inhibition (MAPK1 (human); compound 0.1 µM) was -0.1% and the inhibition (RPS6KA2 KD1 KD2 (human); compound 0.01 µM) was -8.9%. It also gave an inhibition (RPS6KA2 KD1 KD2 (human); compound 0.1 µM) of 2%, an inhibition (FGFR2 (human); compound 0.01 µM) of -8.2% and an inhibition (FGFR2 (human); compound 0.1 µM) of 8.7%. It also gave an inhibition (MAPKAPK2 (human); compound 0.01 µM) of 0.4%, an inhibition (MAPKAPK2 (human); compound 0.1 µM) of -1.9% and an inhibition (PRKCZ (human); compound 0.01 µM) of -0.3%. For the same molecule, the inhibition (PRKCZ (human); compound 0.1 µM) was 4.6%, the inhibition (SGK3 (human); compound 0.01 µM) was -13.2% and the inhibition (SGK3 (human); compound 0.1 µM) was -7.3%. For the same molecule, the inhibition (PRKD2 (human); compound 0.01 µM) was -6.3%, the inhibition (PRKD2 (human); compound 0.1 µM) was -5.2% and the inhibition (FYN (human); compound 0.01 µM) was -0.4%. The inhibition (FYN (human); compound 0.1 µM) was -7.3%, the inhibition (PRKACA (human); compound 0.01 µM) was 3.2% and the inhibition (PRKACA (human); compound 0.1 µM) was 0.4%. For the same molecule, the inhibition (PDGFRA (human); compound 0.01 µM) was -15.7%, the inhibition (PDGFRA (human); compound 0.1 µM) was 4.1% and the inhibition (SRC (human); compound 0.01 µM) was -3.8%. The inhibition (SRC (human); compound 0.1 µM) was -4.2%, the inhibition (BRSK1 (human); compound 0.01 µM) was 9.9% and the inhibition (BRSK1 (human); compound 0.1 µM) was -7.5%. For the same molecule, the inhibition (PRKG1 (human); compound 0.01 µM) was 2% and 2.1%, the inhibition (PRKG1 (human); compound 0.1 µM) was 3.8% and -4.6% and the inhibition (MAPK12 (human); compound 0.01 µM) was -3.3%. For the same molecule, the inhibition (MAPK12 (human); compound 0.1 µM) was -4.6%, the inhibition (PRKCD (human); compound 0.01 µM) was 11% and the inhibition (PRKCD (human); compound 0.1 µM) was 2.4%. It also gave an inhibition (RPS6KA5 KD1 KD2 (human); compound 0.01 µM) of -5.1%, an inhibition (RPS6KA5 KD1 KD2 (human); compound 0.1 µM) of -2.9% and an inhibition (PRKCA (human); compound 0.01 µM) of 0.2%. It also gave an inhibition (PRKCA (human); compound 0.1 µM) of 1.3%, an inhibition (PRKCG (human); compound 0.01 µM) of -3.2% and an inhibition (PRKCG (human); compound 0.1 µM) of 1.8%. It also gave an inhibition ([3]; compound 0.01 µM) of 2.3% and an inhibition ([3]; compound 0.1 µM) of 16.7%.
`O=C(CCc1ccc2ccc3ncc(C4CCNCC4)cc3c(=O)c2c1)NCc1ccccn1` was tested, and the inhibition (MARK2 (human); compound 0.1 µM) was -4.6%, the inhibition (MARK2 (human); compound 1.0 µM) was -1.8% and the inhibition (SGK2 (human); compound 0.1 µM) was -1.4%. The inhibition (SGK2 (human); compound 1.0 µM) was -7.4%, the inhibition (RPS6KA4 KD1 KD2 (human); compound 0.1 µM) was -5.8% and the inhibition (RPS6KA4 KD1 KD2 (human); compound 1.0 µM) was 1%. The inhibition (BTK (human); compound 0.1 µM) was 2.1%, the inhibition (BTK (human); compound 1.0 µM) was 1.1% and the inhibition ([1]; compound 0.1 µM) was 2.7%. The inhibition ([1]; compound 1.0 µM) was 1.3%, the inhibition (IKBKB (human); compound 0.1 µM) was 1.2% and the inhibition (IKBKB (human); compound 1.0 µM) was -3.1%. For the same molecule, the inhibition (MAPKAPK3 (human); compound 0.1 µM) was -0.3%, the inhibition (MAPKAPK3 (human); compound 1.0 µM) was 0.5% and the inhibition (NEK2 (human); compound 0.1 µM) was 6.6%. For the same molecule, the inhibition (NEK2 (human); compound 1.0 µM) was 2.7%, the inhibition (BRSK2 (human); compound 0.1 µM) was 3.4% and the inhibition (BRSK2 (human); compound 1.0 µM) was -3.3%. It also gave an inhibition (RPS6KB1 (human); compound 0.1 µM) of 10.9%, an inhibition (RPS6KB1 (human); compound 1.0 µM) of -3.3% and an inhibition (PRKCQ (human); compound 0.1 µM) of 3.3%. The inhibition (PRKCQ (human); compound 1.0 µM) was 0.5%, the inhibition (MARK1 (human); compound 0.1 µM) was -5.4% and the inhibition (MARK1 (human); compound 1.0 µM) was -1.3%. For the same molecule, the inhibition (FGFR3 (human); compound 0.1 µM) was 0.5%, the inhibition (FGFR3 (human); compound 1.0 µM) was 4.9% and the inhibition ([2]; compound 0.1 µM) was 1.4%. It also gave an inhibition ([2]; compound 1.0 µM) of 1.1%, an inhibition (CAMK2G (human); compound 0.1 µM) of -3.5% and an inhibition (CAMK2G (human); compound 1.0 µM) of -2.8%. The inhibition (MAPK1 (human); compound 0.1 µM) was -1.2%, the inhibition (MAPK1 (human); compound 1.0 µM) was 3.7% and the inhibition (RPS6KA2 KD1 KD2 (human); compound 0.1 µM) was -4.2%. For the same molecule, the inhibition (RPS6KA2 KD1 KD2 (human); compound 1.0 µM) was -2.5%, the inhibition (FGFR2 (human); compound 0.1 µM) was 1.4% and the inhibition (FGFR2 (human); compound 1.0 µM) was 7.8%. For the same molecule, the inhibition (MAPKAPK2 (human); compound 0.1 µM) was -1.1%, the inhibition (MAPKAPK2 (human); compound 1.0 µM) was 0.8% and the inhibition (PRKCZ (human); compound 0.1 µM) was 0.7%. It also gave an inhibition (PRKCZ (human); compound 1.0 µM) of 1.2%, an inhibition (SGK3 (human); compound 0.1 µM) of 9% and an inhibition (SGK3 (human); compound 1.0 µM) of 1%. For the same molecule, the inhibition (PRKD2 (human); compound 0.1 µM) was 7.5%, the inhibition (PRKD2 (human); compound 1.0 µM) was 0% and the inhibition (FYN (human); compound 0.1 µM) was -4.2%. For the same molecule, the inhibition (FYN (human); compound 1.0 µM) was 2.7%, the inhibition (PRKACA (human); compound 0.1 µM) was 2.5% and the inhibition (PRKACA (human); compound 1.0 µM) was 4.8%. It also gave an inhibition (PDGFRA (human); compound 0.1 µM) of 1.5%, an inhibition (PDGFRA (human); compound 1.0 µM) of 3.9% and an inhibition (SRC (human); compound 0.1 µM) of 1.1%. It also gave an inhibition (SRC (human); compound 1.0 µM) of 6.6%, an inhibition (BRSK1 (human); compound 0.1 µM) of -1.6% and an inhibition (BRSK1 (human); compound 1.0 µM) of 1.6%. For the same molecule, the inhibition (PRKG1 (human); compound 0.1 µM) was -5% and 4.5%, the inhibition (PRKG1 (human); compound 1.0 µM) was -1.6% and 0.1% and the inhibition (MAPK12 (human); compound 0.1 µM) was 6.1%. For the same molecule, the inhibition (MAPK12 (human); compound 1.0 µM) was 8.3%, the inhibition (PRKCD (human); compound 0.1 µM) was 0.7% and the inhibition (PRKCD (human); compound 1.0 µM) was -5.4%. For the same molecule, the inhibition (RPS6KA5 KD1 KD2 (human); compound 0.1 µM) was -5.3%, the inhibition (RPS6KA5 KD1 KD2 (human); compound 1.0 µM) was -0.9% and the inhibition (PRKCA (human); compound 0.1 µM) was -9.4%. It also gave an inhibition (PRKCA (human); compound 1.0 µM) of 15.8%, an inhibition (PRKCG (human); compound 0.1 µM) of 10.9% and an inhibition (PRKCG (human); compound 1.0 µM) of -15%. It also gave an inhibition ([3]; compound 0.1 µM) of -1% and an inhibition ([3]; compound 1.0 µM) of 3.4%.
